The subject of series [1] is SARS-CoV CHUK-W1 strain. As to the kind of experiment: microbe, parasite or virus in culture. In kind it is cell-based.
Series [2] concerns SARS-CoV (strain Urbani). As to the kind of experiment: microbe, parasite or virus in culture. In kind it is cell-based.
Series [3] has as its system SARS-CoV Frankfurt-1 strain. As to the kind of experiment: microbe, parasite or virus in culture. The series is classed as cell-based.
For series [4], the system named is SARS-CoV Toronto-2 strain. Briefly: microbe, parasite or virus in culture. The series is classed as cell-based.
The subject of another series is Vero 76 cells. As to the kind of experiment: cells. In kind it is cell-based, African green monkey.
Series [5] deals with SARS-CoV (strain Urbani). Briefly: microbe, parasite or virus in culture. In kind it is cell-based. This is another data set of the same source.
For series [6], the system named is SARS-CoV Toronto-2 strain. Briefly: microbe, parasite or virus in culture. In kind it is cell-based. The source holds these as a separate data set.
The subject of series [7] is SARS-CoV CHUK-W1 strain. Briefly: microbe, parasite or virus in culture. In kind it is cell-based. The source holds these as a separate data set.
For series [8], the system named is SARS-CoV Frankfurt-1 strain. Briefly: microbe, parasite or virus in culture. The series is classed as cell-based. This is another data set of the same source.
For another series, the system named is BALB/c mice. The following applies: mouse, in vivo, ip.
In the next series the test system is mice. Conditions: mouse, in vivo, ip; cited from earlier work.
The test system of another series is lungs. The following applies: mouse, in vivo.
The next series relates to SARS-CoV (Urbani). Also noted: species or system BALB/c mice. The following applies: mouse, in vivo.
[9] abbreviates: Severe acute respiratory syndrome coronavirus, Vero 76, read-out: Neutral red uptake assay EC50 ± S.D.
The mark [10] stands for this setting: Severe acute respiratory syndrome coronavirus, Vero 76, read-out: VYR assay EC90 ± S.D.
Where [11] appears, read: Severe acute respiratory syndrome coronavirus, Vero 76, read-out: Virus yield reduction assay EC90.
Where [12] appears, read: Chlorocebus sabaeus, Vero 76, read-out: Neutral red uptake assay IC50 ± S.D.
[13] abbreviates: Chlorocebus sabaeus, Vero 76, read-out: Virus yield reduction assay IC50.
Where [14] appears, read: read-out: Neutral red uptake assay IC50 ± S.D.
[15] abbreviates: Severe acute respiratory syndrome coronavirus, Vero 76, read-out: Neutral red uptake assay EC50.
The mark [16] stands for this setting: Chlorocebus sabaeus, Vero 76, read-out: Neutral red uptake assay IC50.
The mark [17] stands for this setting: read-out: Virus yield reduction assay EC90.
The mark [18] stands for this setting: read-out: Neutral red uptake assay EC50 ± S.D.
Where [19] appears, read: read-out: VYR assay EC90 ± S.D.
[20] abbreviates: read-out: Neutral red uptake assay IC50.
Setting [21] is: read-out: Virus yield reduction assay IC50.

Each structure is given as a SMILES string. Several values for one entry are separate records, joined by “and”; a condition that tells them apart may be missing. Equal values may be shown once. Entries after “also recorded” stand apart in the source; their conditions may differ. Where a name gives a salt, the structure may show the parent alone. Read-outs that look alike come from different tables or passages of the source. Where only a bound is given, the exact number is not on record here.

What is called EC50 is the midpoint of the concentration-response curve. What is called EC90 is the concentration needed for an effect of 90%. Broadly, the IC50 is the concentration needed to halve the response being measured. Turning to `CC(=O)c1ccc2c(c1)N(CCCN1CCN(CCO)CC1)c1ccccc1S2` [Acetophenazine maleate], the EC50 amounted to 9.6 ± 7.6 µM in the series on SARS-CoV CHUK-W1 strain [1] (setting [9]), 11.5 ± 3.7 µM in [4] (setting [9]), 6.6 ± 3.3 µM in the series on SARS-CoV (strain Urbani) [5] (setting [15]) and 8.1 ± 1.4 µM in the series with SARS-CoV (strain Urbani) [5] (setting [9]). Also, the EC90 with SARS-CoV (strain Urbani) [2] (setting [10]) came to 12.3 ± 2.1 µM; in the series with SARS-CoV (strain Urbani) [2] (setting [11]), 10 ± 5 µM; in series [3] (setting [10]), 10 ± 5.2 µM; in [6] (setting [10]), 13 µM; in the series on SARS-CoV CHUK-W1 strain [7] (setting [10]) it was 11.2 ± 3.2 µM. In addition, the IC50 is 14.3 ± 6.4 µM in the series on Vero 76 cells (setting [12]); 13.2 ± 1.6 µM with Vero 76 cells (setting [13]); 18 µM and 15.5 µM and 13.7 µM in the series on Vero 76 cells (setting [14]).
Consider `CN(C)CC/C=C1/c2ccccc2Sc2ccc(Cl)cc21` [Chlorprothixene], for which the “Neutral red uptake assay SI” value in [8] was 1.2; with SARS-CoV CHUK-W1 strain [1], 1.5; in series [4] it was 1.2; in the series with SARS-CoV (strain Urbani) [5], 1.9 and 1.4. The EC50 is 11.1 ± 3.4 µM in [8] (setting [9]); 12.6 ± 6.5 µM in the series with SARS-CoV CHUK-W1 strain [1] (setting [9]); 12.9 ± 3.6 µM in series [4] (setting [9]); 9.5 ± 5.7 µM in the series with SARS-CoV (strain Urbani) [5] (setting [15]); 12 ± 3.5 µM in the series on SARS-CoV (strain Urbani) [5] (setting [9]). The “Virus yield reduction assay SI” value in the series on SARS-CoV (strain Urbani) [2] was found to be 1.8. In addition, the EC90 in the series on SARS-CoV (strain Urbani) [2] (setting [10]) is 10.5 ± 5.2 µM; in the series with SARS-CoV (strain Urbani) [2] (setting [11]) it was 10.4 ± 4.2 µM; in series [3] (setting [10]), 12.3 ± 0.6 µM; in series [6] (setting [10]), 13 ± 1 µM; with SARS-CoV CHUK-W1 strain [7] (setting [10]) it was 12.1 ± 4.2 µM. The IC50 in the series on Vero 76 cells (setting [12]) was 13 ± 2 µM; in the series on Vero 76 cells (setting [13]) it was 18.3 ± 3.4 µM; with Vero 76 cells (setting [14]) it was 18.5 µM and 15.8 µM and 16.7 µM.
As for `c1ccc2c(c1)Nc1ccccc1O2` [Phenoxazine], in the series on Vero 76 cells (setting [16]), the IC50 was determined as 74.5 ± 20.2 µM. In the series on SARS-CoV (strain Urbani) [5], the “Inhibition of virus replication in vitro (in words)” value was “essentially inactive” and the “Neutral red uptake assay SI” value is under 1.
Turning to `CN1CCN(CCCN2c3ccccc3Sc3ccc(C(F)(F)F)cc32)CC1` [Trifluoperazine dimaleate], the “Virus yield reduction assay SI” value in the series on SARS-CoV (strain Urbani) [2] was under 1. Also, in the series with SARS-CoV (strain Urbani) [2] (setting [17]), the concentration for an effect of 90% (EC90) stood at 10.2 ± 4.4 µM. The IC50 with Vero 76 cells (setting [16]) is 9.5 ± 3.1 µM; in the series on Vero 76 cells (setting [13]), 8 ± 2.1 µM. For the same molecule, the “Neutral red uptake assay SI” value with SARS-CoV (strain Urbani) [5] is 1.3. The EC50 with SARS-CoV (strain Urbani) [5] (setting [15]) was 7.3 ± 4.7 µM.
On to `CN1CCCC1CN1c2ccccc2Sc2ccccc21.Cl` (stereo not shown) [10-(1-Methyl-2-pyrrolidinymethyl)-phenothiazine·HCl], for which the EC50 was 24.3 ± 7.4 µM in [8] (setting [18]), 19 ± 2.6 µM in the series on SARS-CoV CHUK-W1 strain [1] (setting [18]) and 28.5 ± 8.1 µM in series [4] (setting [18]). The EC90 in the series with SARS-CoV (strain Urbani) [2] (setting [19]) turned out to be 28.3 ± 12.9 µM; in the series with SARS-CoV (strain Urbani) [2] (setting [17]), 16.9 ± 9.7 µM; in series [3] (setting [19]), 23.7 ± 6 µM; in [6] (setting [19]), 41.7 ± 4 µM; with SARS-CoV CHUK-W1 strain [7] (setting [19]), 31.3 ± 14.2 µM. Moreover, the IC50 in the series with Vero 76 cells (setting [20]) is 39.9 ± 0.2 µM; in the series on Vero 76 cells (setting [14]) it was 39.7 µM and 32.3 µM and 48 µM and 42.3 µM; in the series on Vero 76 cells (setting [21]) it was 39.9 ± 0.2 µM.
On to `CN(C)CCCN1c2ccccc2Sc2ccccc21` [Promazine, 10-(3-(dimethylamino)propyl)phenothiazine], for which the “Neutral red uptake assay SI” value in [8] is 1.6; in the series on SARS-CoV CHUK-W1 strain [1] it was 2.2; in [4], 1.5; with SARS-CoV (strain Urbani) [5], 1.2 and <1. In addition, the EC50 was 21 ± 15.4 µM in series [8] (setting [9]); 15.6 ± 8.5 µM in the series on SARS-CoV CHUK-W1 strain [1] (setting [9]); 22.6 ± 12.8 µM in series [4] (setting [9]); 10.8 ± 8.1 µM in the series on SARS-CoV (strain Urbani) [5] (setting [15]); 14 ± 6.1 µM in the series with SARS-CoV (strain Urbani) [5] (setting [9]). Further, the “Virucidal activity (virus titer reduction after exposure)” value in the series with SARS-CoV is on record as “did not result in virus titer reduction”. For the same molecule, the “Virus yield reduction assay SI” value in the series on SARS-CoV (strain Urbani) [2] was 2.1. Besides, the EC90 with SARS-CoV (strain Urbani) [2] (setting [10]) turned out to be 7.8 ± 3.1 µM; with SARS-CoV (strain Urbani) [2] (setting [11]), 8.3 ± 2.8 µM; in [3] (setting [10]), 11.6 ± 6.3 µM; in series [6] (setting [10]) it was 20.7 ± 9.5 µM; in the series on SARS-CoV CHUK-W1 strain [7] (setting [10]) it was 16.5 ± 11.1 µM. The Lethality entry in the series on BALB/c mice (BALB/c) is “lethal to all mice by day 3”; in the series with BALB/c mice, “somewhat lethal”. For the same molecule, in the series on mice, the LD50 is on record as 140 mg/(kg day). Moreover, the “Histopathological examination of lungs” value with lungs is listed as “no signs of pathology”. The “Duration of virus replication in the lungs (in words)” value in the series with SARS-CoV (Urbani) is recorded as “prolonged virus replication to 14 days; also recorded: significantly prolonged”. The “Virus titer ± S.D., Day 3” value in the series with SARS-CoV (Urbani) is 5.6 ± 1.0 Log10 CCID50/g and 5.6 ± 0.4 Log10 CCID50/g and 5.7 ± 0.3 Log10 CCID50/g and 5.6 ± 0.0 Log10 CCID50/g and 5.8 ± 0.4 Log10 CCID50/g and 6.0 ± 0.6 Log10 CCID50/g; with SARS-CoV (Urbani) (ip), 5.6 ± 0.0 Log10 CCID50/g and 6.0 ± 0.6 Log10 CCID50/g and 5.4 ± 0.1 Log10 CCID50/g. Moreover, in the series with SARS-CoV (Urbani), the “Virus titer ± S.D., Day 14” value was 3.4 ± 0.1 Log10 CCID50/g and 3.4 ± 0.0 Log10 CCID50/g. Besides, the “Inhibition of virus replication in the lungs, therapeutic treatment (in words)” value with SARS-CoV (Urbani) (ip) is “not efficacious”. The “Reduction of viral replication in the lungs at day 3 (in words)” value with SARS-CoV (Urbani) (ip) was “did not reduce virus lung titers; also recorded: no significant reduction”. In addition, the “Virus titer ± S.D., Day 7” value in the series with SARS-CoV (Urbani) (ip) is on record as under 0.75 Log10 CCID50/g. Further, the IC50 in the series on Vero 76 cells (setting [16]) is 13.5 ± 6.2 µM; in the series on Vero 76 cells (setting [13]), 18.2 ± 14.6 µM.
For `CN(C)CCCN1c2ccccc2Sc2ccc(C(F)(F)F)cc21.Cl` [Trifluopromazine·HCl], in the series with SARS-CoV (strain Urbani) [2], the “Virus yield reduction assay SI” value came to 1.4. The EC90 in the series on SARS-CoV (strain Urbani) [2] (setting [17]) worked out at 12.8 ± 1.9 µM. Besides, the IC50 with Vero 76 cells (setting [20]) and in the series with Vero 76 cells (setting [21]) was 18 ± 5.6 µM each time. Also, in the series with SARS-CoV (strain Urbani) [5], the “Neutral red uptake assay SI” value is reported as 1.4. In addition, the EC50 in the series on SARS-CoV (strain Urbani) [5] (read-out: Neutral red uptake assay EC50) stood at 13.3 ± 5.8 µM.
For `CCN(CC)C(C)CN1c2ccccc2Sc2ccccc21` (stereo not shown) [Ethopropazine], in the series with SARS-CoV (strain Urbani) [2], the “Virus yield reduction assay SI” value amounted to 1.5. For the same molecule, the EC90 in the series on SARS-CoV (strain Urbani) [2] (setting [11]) was found to be 42 µM. Besides, the IC50 in the series with Vero 76 cells (setting [16]) and in the series on Vero 76 cells (setting [13]) was 61.3 ± 34.7 µM each time. Besides, the “Neutral red uptake assay SI” value in the series with SARS-CoV (strain Urbani) [5] was found to be 2.0. The EC50 in the series with SARS-CoV (strain Urbani) [5] (setting [15]) amounted to 30.5 ± 27.5 µM.

Values taken from PMC2582943 (Antiviral Research, 2008).
